Key:
[1] = tested on: U2OS (osteosarcoma) cells; assay: Soft agar assay (anchorage-independent growth), U2OS; type: cell-based, human
Protocol: (§1) Soft agar assay and analysis was carried out as previously described. For scratch assay, confluent monolayer of U2OS and HT-1080 cells were subjected to scratch using a sterile pipette tip. Wounded monolayers were washed to remove debris and incubated with SEN461 at different concentrations for 20 hours. After the incubation period, images were taken under an Axiovert 200M (Zeiss) microscope equipped with a CCD camera, and the gap width was measured using MetaMorph 6.3 software (Universal Imaging Corp.) to calculate the area covered by cells (pixels unit). The tube formation assay was performed using growth factor-reduced Matrigel from BD (BD Biosciences; San Jose, CA, USA). Matrigel was thawed overnight at 4°C and was diluted (1∶1) with phenol red-free DMEM without serum. 100 µl of the diluted matrigel was used to coat the wells of a 96 well plate and was allowed to polymerize for 2 hours at 37°C. After equilibrating the gel with the complete growth medium, 15×10^3 cells were seeded in each well and incubated for 20 hours. The tube formation was monitored under a phase contrast microscope (Axiovert 200, Zeiss) and imaged using MetaMorph system (Universal Imaging Corp).

[2] = tested on: HT-1080 (fibrosarcoma) cells; assay: Soft agar assay (anchorage-independent growth), HT-1080; type: cell-based, human
Protocol: as §1

143B osteosarcoma cells = assay: Soft agar assay (anchorage-independent growth), 143B; type: cell-based, human; conditions: lack of sensitivity up to highest concentration
Protocol: as §1

[3] = tested on: Axin1 and β-catenin in G292 osteosarcoma cells; assay: Western blotting in G292; type: cell-based, human
HT-1080 cells = assay: Tube formation assay, HT-1080; type: cell-based, human; conditions: HT-1080, 24 hours exposure, vs DMSO
Protocol: as §1, with “After equilibrating the gel with the complete growth medium, 15×10^3 cells were seeded in each well and incubated for 20 hours.” left out

[4] = tested on: Notch signaling in HEK293 cells; assay: Hes5 promoter luciferase reporter with Notch1-IC, HEK293; type: cell-based; conditions: HEK293, Notch1-IC stimulation, data not shown
Text: The generation of TCF-Luciferase and TA-Renilla reporter plasmids as well as IC50 determination and calculation was reported previously. Human AXIN1 and WNT3A cDNAs were purchased from Origene as “transfection ready” plasmids. Dominant negative TCF4 cDNA was purchased from Upstate. Luciferase reporter of the nucleolin promoter (pNucL14) and FLAG-c-Myc expressing vector were from B. Amati. Luciferase reporter of the Hes5 promoter and Notch1-IC expressing vector were from I. Screpanti. Lentiviral vectors for inducible dominant negative TCF4 (rLV-EF1-tTS, rLV-EF1-rtTA and rLV-TRE-CMV-HA-TCF4DN) were purchased from Vectalys.
Transfections were carried out using Lipofectamine 2000 (Invitrogen) according to the manufacturer’s instructions. Lentiviral expression of TCF-Luc, TA-Renilla, and the inducible dominant negative TCF4, were carried out following Vectalys instructions. For reporter assays, luciferase activities were performed as described previously.

[5] = tested on: human mRNA in HT-1080 xenograft tumors; assay: Gene expression (qPCR) in HT-1080 xenograft tumors; type: in vivo, female Crl:CD-1 nude mice
Protocol: RNA extraction and quantitative RT-PCR (qPCR) expression analysis was performed as described previously. Gene expression analysis was performed using the human housekeeping gene RPL13A. Primers for the hAXIN2, hCDC25A, hc-MYC, hFZD4, hDVL2, hCSNK1G and hVEGF-A were the following: [NT] Rv: [NT] Rv: [NT] Rv: [NT] Rv: [NT] Rv: [NT] Rv: [NT] Rv: [NT]. Female athymic nude mice (6 weeks old, Crl:CD-1 nude mice) were obtained from Charles River Italia (Calco, Italy). HT-1080 cells (6×10^∧6 cells) were resuspended in 200 μl of PBS 1X and injected subcutaneously in the right flank of the mice. Body weight and tumor measurements (using a digital caliper) were performed twice a week. […] SEN461 was formulated in 0.5% w/v Methocel in MilliQ water and administered PO by oral gavage twice a day at 30 mg/kg for seven consecutive days in a total of 15 animals (n = 5 for each time point). Control animals (n = 5) were administered with the vehicle for the same time period. On treatment day 19, the mice were euthanized under inhalant anesthesia with isoflurane and tumor and blood samples were collected at three different time points (1-4-8 h, n = 5 animals for each time point) after last treatment and subjected to gene expression analysis and compound quantification. All mice were maintained in a conventional-specific-pathogen-free facility according to the NIH guidelines using an approved Animal Care and Use Committee protocol. During all the experimental time period, mice were housed (5 animals/cage) in individually ventilated solid floor plastic cages (Sealsafe Plus GR500, Tecniplast-Gazzada (VA) - Italy) using as bedding the Sawdust SCOBIS UNO by […] (via Galileo […] Milanese, Milano, Italy). Cages were maintained at a temperature of 20-24°C and humidity of 40-70% (Siemens Desigo Apparatus ver. 4.1) with 70 air changes/hour in the cage (10-15 air changes/hour in the room). Animals were subjected to a 12-hour light/12-hour dark cycle and have free access to a standard pelleted commercial laboratory diet (Certified Rodent irradiated 4RF21- Mucedola, Italy) and to municipal tap water, purified by reverse osmosis and autoclaved. The study was conducted in compliance with Decreto Legislativo January 27, 1992, N. 116, Gazzetta Ufficiale N. 40 February 18, 1992, (Directive N. […]) concerning protection of animals used for scientific purposes. The project was authorized by the Italian Institute of Health (48/2009/B). The experimental protocol was […] approved by the Internal Ethical Committee.

[6] = 30 mg/kg BID PO 7 days, data not shown

COCC(=O)N1CCN(C(=O)C2CCC(Cn3c(=O)c4cc(OC)ccc4n(C)c3=O)CC2)CC1 (centres unmarked) [SEN461]
IC50 [1]: 300 nM
IC50 [2]: 780 nM
IC50 (143B osteosarcoma cells): > 30000 nM
Axin protein level [3]: Axin stabilization
β-catenin level [3]: β-catenin down-modulation
tubule-formation activity (HT-1080 cells): did not produce any change
Notch signaling (Hes5 promoter luciferase) [4]: did not detect any transcriptional effects
AXIN2 mRNA in HT-1080 xenograft tumors [5, 6]: without any significant effect
CDC25A mRNA in HT-1080 xenograft tumors [5, 6]: without any significant effect
c-MYC mRNA in HT-1080 xenograft tumors ([5]; 30 mg/kg BID PO 7 days, 1, 4, 8 h, vs control animals): down-modulation of c-MYC
VEGF-A mRNA in HT-1080 xenograft tumors ([5]; 30 mg/kg BID PO, 1 h, treated versus control): did not show any difference
